Results reported in the NIST ThermoML archive (doi:10.1021/je8002282).

Columns and labels:
[1] = xn = mol fraction of the nth substance listed; conditions: Liquid
[2] = Liquid

O=O [oxygen] + COC(=O)OC
[1], determining using the ratio of the masses to the volume of the sample.
Conditions | mass density [kg/m3]
293.15 K, x1 = 0.0612 | 1087.6
293.15 K, x1 = 0.0791 | 1062.4
293.15 K, x1 = 0.097 | 1032
293.15 K, x1 = 0.1266 | 984.7
293.15 K, x1 = 0.1605 | 931.3
293.15 K, x1 = 0.1977 | 838
313 K, x1 = 0.0506 | 1056.6
313 K, x1 = 0.061 | 1014.8
313 K, x1 = 0.0748 | 960.2
313 K, x1 = 0.099 | 885.7
313 K, x1 = 0.1307 | 824.8
313 K, x1 = 0.175 | 766.6
353 K, x1 = 0.0412 | 988.5
353 K, x1 = 0.0523 | 947.8
353 K, x1 = 0.0614 | 882.2
353 K, x1 = 0.0733 | 826.7
353 K, x1 = 0.082 | 728.8
353 K, x1 = 0.1018 | 685.3
373 K, x1 = 0.0233 | 935.5
373 K, x1 = 0.0347 | 900.2
373 K, x1 = 0.0539 | 841.3
373 K, x1 = 0.071 | 798.9
373 K, x1 = 0.0858 | 712.5
373 K, x1 = 0.0953 | 652.5

COC [dimethyl ether]
[2]
Conditions | vapor or sublimation pressure [kPa]
293 K | 520
313 K | 900
353 K | 2240
373 K | 3260

COC(=O)OC [dimethyl carbonate]
[2]
Conditions | vapor or sublimation pressure [kPa]
293 K | 10
313 K | 20
353 K | 70
373 K | 140

[C-]#[O+] [carbon monoxide] + COC(=O)OC
[1], Pycnometric method
Conditions | mass density [kg/m3]
293 K, x1 = 0.0547 | 1078
293 K, x1 = 0.0679 | 1036.5
293 K, x1 = 0.0838 | 992.5
293 K, x1 = 0.1138 | 963.5
293 K, x1 = 0.1413 | 919.7
293 K, x1 = 0.1606 | 865.9
313 K, x1 = 0.0534 | 966.4
313 K, x1 = 0.0646 | 948
313 K, x1 = 0.0868 | 910.2
313 K, x1 = 0.1087 | 885.7
313 K, x1 = 0.1199 | 834.8
313 K, x1 = 0.1511 | 786.6
353 K, x1 = 0.0485 | 868.7
353 K, x1 = 0.0677 | 853
353 K, x1 = 0.0752 | 847.4
353 K, x1 = 0.0873 | 802.4
353 K, x1 = 0.0936 | 773.3
353 K, x1 = 0.1204 | 720.7
373 K, x1 = 0.0418 | 841.2
373 K, x1 = 0.0545 | 829.8
373 K, x1 = 0.0723 | 801.3
373 K, x1 = 0.084 | 786.7
373 K, x1 = 0.0943 | 754.3
373 K, x1 = 0.1095 | 710.1
